{"source": "patent US20150094354A1", "about": "“METHOD FOR TREATING CELL PROLIFERATIVE DISORDER BY INHIBITING C1GALT1 EXPRESSION” (National Taiwan University, priority 2013, published 2015)", "format_in_all_cases": "cell-based, human", "key": {"[1]": {"tested_on": "HA22T cells", "assay": "Cell-cycle analysis by propidium iodide flow cytometry", "conditions": "HA22T (not shown)", "protocol": "(§1) Cells (4×10^4) are seeded in each well of 6-well plates with DMEM containing 10% FBS. Viable cells are analyzed by Trypan blue exclusion assay at 0, 24, 48, and 72 hours. Cell proliferation is evaluated by immunostaining with anti-Ki67 antibody (1:1000; Vector Laboratories). For cell-cycle analysis, 1×10^6 cells are stained with propidium iodide (Sigma) for 30 minutes. The percentages of cells in G1, S, and G2M phases are analyzed by flow cytometry (Becton Dickinson).\n(§2) FIGS. 10A-10B are schematic diagrams illustrating the effects of C1GALT1 on cell proliferation of hepatocellular carcinoma cells in vitro in accordance with an embodiment of the present invention. Cells were immunofluorescently stained for Ki67 and Ki67-positive cells were counted under a microscope. Results are presented as means±SD from three independent experiments. *, P<0.05; **, P<0.01."}, "[2]": {"tested_on": "PLC5 cells", "assay": "Cell-cycle analysis by propidium iodide flow cytometry", "conditions": "PLC5 (not shown)", "protocol": "as §1, §2"}, "[3]": {"tested_on": "HGF/MET signaling pathway", "assay": "HGF-induced signaling by Western blotting", "protocol": "Human liver cancer cell lines, Huh7, PLC5, Sk-Hep1, and HepG2, are purchased from Bioresource Collection and Research Center in the year 2008. HA22T, SNU387, and HCC36 cells are kindly provided by Prof. Shiou-Hwei Yeh (National Taiwan University) in the year 2010. All cell lines are authenticated by the provider based on morphology, antigen expression, growth, DNA profile, and cytogenetics. Cells are cultured in Dulbecco's Modified Eagle Medium (DMEM) containing 10% FBS in 5% CO2 at 37° C. To analyze growth factor-induced cell signaling, cells are starved in serum-free DMEM for 5 hours and then treated with 25 ng/mL of hepatocyte growth factor (HGF) or insulin-like growth factor (IGF) at 37° C. for 30 minutes.\nEqual amounts of protein samples are mixed with 5× sample buffer and boiled for 5 minutes, separated on SDS-polyacrylamide gels, and then transferred to PVDF membrane. The membranes are blocked in 5% BSA for 1 hour at room temperature, and incubated with primary antibodies overnight at 4° C. Anti-phosphotyrosine (4G10) antibody (Millipore, Billerica, Mass.), antibodies against C1GALT1, GAPDH, IGF-IR, MET pY 1234/5, IGF-IR pY1135/1136, p-AKT, p-ERK1/2, and ERK1/2 antibody (BD Pharmingen, San Jose, Calif.) are used. The blots are then incubated with secondary antibody conjugated with horseradish peroxidase and immunoreacted bands are detected by ECL reagents and exposed on x-ray film.\nFIGS. 13A-13B are autoradiograms illustrating the effects of C1GALT1 on the HGF-induced signaling and IGF-induced signaling in hepatocellular carcinoma cells in accordance with an embodiment of the present invention. The role of C1GALT1 in glycosylation and activation of MET in hepatocellular carcinoma cells was investigated. HA22T, PLC5, Sk-Hep1, and HCC36 cells were starved for 5 hours and then treated with (+)/without (−) HGF (25 ng/mL) or IGF (25 ng/mL) for 30 minutes. Cell lysates ([…]) were analyzed by Western blotting with various antibodies, as indicated. […] In contrast, overexpression of C1GALT1 enhanced HGF-induced activation of MET and increased p-AKT levels in Sk-Hep1 and HCC36 cells, as shown in FIG. 13B."}}}
{"substance": "C1GALT1 si-1: siRNA oligonucleotide against C1GALT1, presumably SEQ ID NO: 1, UUAGUAUACGUUCAGGUAAGGUAGG (chemistry not given here)", "values": [{"measurement": "cell cycle", "setting": "[1]", "value": "G1-phase arrest"}, {"measurement": "cell cycle", "setting": "[2]", "value": "G1-phase arrest"}, {"measurement": "HGF-induced phosphorylation of MET at Y1234/5", "setting": "[3]; HA22T, HGF 25 ng/mL 30 minutes", "value": "inhibited"}, {"measurement": "phosphorylation of AKT", "setting": "[3]; HA22T, HGF 25 ng/mL 30 minutes", "value": "suppressed"}, {"measurement": "HGF-induced phosphorylation of MET at Y1234/5", "setting": "[3]; PLC5, HGF 25 ng/mL 30 minutes", "value": "inhibited"}, {"measurement": "phosphorylation of AKT", "setting": "[3]; PLC5, HGF 25 ng/mL 30 minutes", "value": "suppressed"}]}
{"substance": "C1GALT1 si-2: siRNA oligonucleotide against C1GALT1, presumably SEQ ID NO: 2, UUAUGUUGGCUAGAAUCUGCAUUGA (chemistry not given here)", "values": [{"measurement": "cell cycle", "setting": "[1]", "value": "G1-phase arrest"}, {"measurement": "cell cycle", "setting": "[2]", "value": "G1-phase arrest"}, {"measurement": "HGF-induced phosphorylation of MET at Y1234/5", "setting": "[3]; HA22T, HGF 25 ng/mL 30 minutes", "value": "inhibited"}, {"measurement": "phosphorylation of AKT", "setting": "[3]; HA22T, HGF 25 ng/mL 30 minutes", "value": "suppressed"}, {"measurement": "HGF-induced phosphorylation of MET at Y1234/5", "setting": "[3]; PLC5, HGF 25 ng/mL 30 minutes", "value": "inhibited"}, {"measurement": "phosphorylation of AKT", "setting": "[3]; PLC5, HGF 25 ng/mL 30 minutes", "value": "suppressed"}]}
